The values below come from ChEMBL document CHEMBL1148870, “Novel inhibitors of VEGF receptors-1 and -2 based on azole-5-carboxamide templates” (Bioorg Med Chem Lett, 2007).

The target of assay [1] is Receptor tyrosine-protein kinase erbB-2 (Homo sapiens) (UniProt P04626). Put plainly: Inhibition of ErbB2/Her2 at 10 uM. On the set-up: scale not given: the % may be the effect or the level left.
The target of assay [2] is Receptor-type tyrosine-protein kinase FLT3 (Homo sapiens) (UniProt P36888). Put plainly: Inhibition of Flt3 at 10 uM. Also on record: scale not given: the % may be the effect or the level left.
Assay [3] concerns the target Fibroblast growth factor receptor 1 (Homo sapiens) (UniProt P11362). Nature of the assay: Inhibition of FGFR1 at 10 uM. On the set-up: scale not given: the % may be the effect or the level left.
For assay [4], the target named is Insulin-like growth factor 1 receptor (Homo sapiens) (UniProt P08069). Put plainly: Inhibition of IGF1R at 10 uM. Also on record: scale not given: the % may be the effect or the level left.
For assay [5], the species on record is Homo sapiens. Nature of the assay: Inhibition of Cdk1 at 10 uM. Also on record: scale not given: the % may be the effect or the level left.
Assay [6] deals with Vascular endothelial growth factor receptor 1 (Homo sapiens, UniProt P17948). Put plainly: Inhibition of VEGFR1 assessed as inhibition of phosphorylation in presence of 2 uM ATP by HTRF assay. It is filed as functional.
Assay [7] is filed under the species Homo sapiens. Put plainly: Inhibition of PKA at 10 uM. Also on record: scale not given: the % may be the effect or the level left.
Assay [8] concerns the target RAC-alpha serine/threonine-protein kinase (Homo sapiens) (UniProt P31749). Put plainly: Inhibition of PKB/Akt at 10 uM. On the set-up: scale not given: the % may be the effect or the level left.
Assay [9] has as its target Vascular endothelial growth factor receptor 3 (Homo sapiens) (UniProt P35916). Nature of the assay: Inhibition of Flt4 at 10 uM. Also on record: scale not given: the % may be the effect or the level left.
For assay [10], the target named is T1, Vascular endothelial growth factor receptor 2 (Homo sapiens, UniProt P35968). Put plainly: Inhibition of VEGFR2 assessed as inhibition of phosphorylation in human 293 cells by cell-based ELISA. It is filed as functional, HEK293. Background: In an ELISA, binding on a coated surface is turned into a signal by an enzyme label.
The species named for assay [11] is Homo sapiens. Put plainly: Inhibition of InR at 10 uM. On the set-up: scale not given: the % may be the effect or the level left.
Assay [12] has as its target T1, Vascular endothelial growth factor receptor 2. Put plainly: Inhibition of VEGFR2 assessed as inhibition of phosphorylation in presence of 2 uM ATP by HTRF assay. It is filed as functional. (In general: Time-resolved FRET reads energy transfer from a long-lived donor to a nearby acceptor.)
The target of assay [13] is Hepatocyte growth factor receptor (Homo sapiens) (UniProt P08581). Put plainly: Inhibition of cMet at 10 uM. On the set-up: scale not given: the % may be the effect or the level left.
The species entered for assay [14] is Homo sapiens. Nature of the assay: Inhibition of bcr-Abl at 10 uM. On the set-up: scale not given: the % may be the effect or the level left.
The target of assay [15] is Cyclin-dependent kinase 2 (Homo sapiens) (UniProt P24941). Nature of the assay: Inhibition of Cdk2 at 10 uM. On the set-up: scale not given: the % may be the effect or the level left.
In assay [16] the target is RAF proto-oncogene serine/threonine-protein kinase (Homo sapiens) (UniProt P04049). Put plainly: Inhibition of Raf1 at 10 uM. On the set-up: scale not given: the % may be the effect or the level left.
Assay [17] deals with Epidermal growth factor receptor (Homo sapiens) (UniProt P00533). Put plainly: Inhibition of ErbB1 at 10 uM. On the set-up: scale not given: the % may be the effect or the level left.
The target in assay [18] is Glycogen synthase kinase-3 beta (Homo sapiens) (UniProt P49841). Put plainly: Inhibition of GSK3-beta at 10 uM. Also on record: scale not given: the % may be the effect or the level left.

A value given as a limit tells only on which side of the number the result lay.

Sequence of Receptor tyrosine-protein kinase erbB-2 (Homo sapiens) (P04626 whole entry): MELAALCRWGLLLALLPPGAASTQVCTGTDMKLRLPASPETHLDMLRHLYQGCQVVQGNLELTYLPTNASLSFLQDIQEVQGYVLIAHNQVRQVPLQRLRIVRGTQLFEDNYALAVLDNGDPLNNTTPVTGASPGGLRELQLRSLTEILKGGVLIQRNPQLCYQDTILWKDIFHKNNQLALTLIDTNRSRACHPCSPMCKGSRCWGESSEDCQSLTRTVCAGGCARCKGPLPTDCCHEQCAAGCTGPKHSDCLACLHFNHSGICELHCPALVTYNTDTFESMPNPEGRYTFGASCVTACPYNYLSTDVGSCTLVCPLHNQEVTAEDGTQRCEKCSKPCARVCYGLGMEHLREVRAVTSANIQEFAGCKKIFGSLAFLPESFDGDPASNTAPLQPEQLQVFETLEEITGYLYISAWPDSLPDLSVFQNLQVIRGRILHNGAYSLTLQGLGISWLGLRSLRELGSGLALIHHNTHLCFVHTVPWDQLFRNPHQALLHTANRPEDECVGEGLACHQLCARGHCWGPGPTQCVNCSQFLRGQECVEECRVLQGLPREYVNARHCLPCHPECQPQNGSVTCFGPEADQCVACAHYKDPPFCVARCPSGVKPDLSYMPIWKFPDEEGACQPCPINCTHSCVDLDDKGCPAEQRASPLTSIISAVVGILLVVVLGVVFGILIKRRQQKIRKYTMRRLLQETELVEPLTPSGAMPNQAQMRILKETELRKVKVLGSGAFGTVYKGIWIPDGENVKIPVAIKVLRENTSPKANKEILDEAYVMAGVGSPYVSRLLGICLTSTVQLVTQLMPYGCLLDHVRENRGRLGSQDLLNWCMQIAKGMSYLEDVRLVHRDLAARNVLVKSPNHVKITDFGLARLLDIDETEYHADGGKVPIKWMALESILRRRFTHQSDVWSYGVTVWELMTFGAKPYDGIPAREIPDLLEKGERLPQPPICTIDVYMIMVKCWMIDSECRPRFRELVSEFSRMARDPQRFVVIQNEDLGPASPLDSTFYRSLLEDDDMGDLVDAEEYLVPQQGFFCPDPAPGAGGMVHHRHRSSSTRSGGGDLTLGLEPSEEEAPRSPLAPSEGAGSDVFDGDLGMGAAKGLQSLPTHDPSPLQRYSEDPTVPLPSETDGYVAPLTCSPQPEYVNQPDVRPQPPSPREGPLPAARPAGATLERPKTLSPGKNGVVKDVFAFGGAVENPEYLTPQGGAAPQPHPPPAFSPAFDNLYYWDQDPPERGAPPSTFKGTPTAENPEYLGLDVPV
Sequence of Epidermal growth factor receptor (Homo sapiens) (P00533 whole entry): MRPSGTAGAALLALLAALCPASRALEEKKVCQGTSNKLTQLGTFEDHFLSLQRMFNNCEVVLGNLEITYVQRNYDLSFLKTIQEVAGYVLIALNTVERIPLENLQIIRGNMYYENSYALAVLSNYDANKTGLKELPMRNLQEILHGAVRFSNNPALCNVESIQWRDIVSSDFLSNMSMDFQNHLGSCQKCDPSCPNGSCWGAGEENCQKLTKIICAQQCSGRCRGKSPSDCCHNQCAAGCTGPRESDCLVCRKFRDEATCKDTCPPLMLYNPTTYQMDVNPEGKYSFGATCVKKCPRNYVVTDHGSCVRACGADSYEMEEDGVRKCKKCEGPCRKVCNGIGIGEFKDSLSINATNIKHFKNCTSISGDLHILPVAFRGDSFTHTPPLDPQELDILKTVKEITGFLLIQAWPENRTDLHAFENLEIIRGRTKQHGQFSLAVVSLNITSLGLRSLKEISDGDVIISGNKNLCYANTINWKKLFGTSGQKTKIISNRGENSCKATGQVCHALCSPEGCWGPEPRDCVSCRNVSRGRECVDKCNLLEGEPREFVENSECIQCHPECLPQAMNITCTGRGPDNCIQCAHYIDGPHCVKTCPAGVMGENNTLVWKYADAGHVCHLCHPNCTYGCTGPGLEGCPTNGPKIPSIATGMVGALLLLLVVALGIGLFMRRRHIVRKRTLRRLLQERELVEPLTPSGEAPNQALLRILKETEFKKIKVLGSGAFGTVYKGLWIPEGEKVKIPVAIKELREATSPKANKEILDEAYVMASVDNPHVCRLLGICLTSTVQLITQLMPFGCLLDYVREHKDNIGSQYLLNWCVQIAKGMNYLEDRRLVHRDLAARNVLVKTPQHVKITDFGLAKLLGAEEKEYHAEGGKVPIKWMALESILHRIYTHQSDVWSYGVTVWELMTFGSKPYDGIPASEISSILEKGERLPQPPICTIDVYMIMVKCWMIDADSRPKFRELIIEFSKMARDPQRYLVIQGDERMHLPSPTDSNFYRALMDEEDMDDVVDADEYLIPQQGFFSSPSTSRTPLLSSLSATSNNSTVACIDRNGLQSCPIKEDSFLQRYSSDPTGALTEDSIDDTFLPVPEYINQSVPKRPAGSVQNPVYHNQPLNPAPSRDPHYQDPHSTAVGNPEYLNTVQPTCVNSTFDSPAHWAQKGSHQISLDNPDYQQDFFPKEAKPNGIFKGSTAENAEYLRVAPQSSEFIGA
Sequence of Hepatocyte growth factor receptor (Homo sapiens) (P08581 whole entry): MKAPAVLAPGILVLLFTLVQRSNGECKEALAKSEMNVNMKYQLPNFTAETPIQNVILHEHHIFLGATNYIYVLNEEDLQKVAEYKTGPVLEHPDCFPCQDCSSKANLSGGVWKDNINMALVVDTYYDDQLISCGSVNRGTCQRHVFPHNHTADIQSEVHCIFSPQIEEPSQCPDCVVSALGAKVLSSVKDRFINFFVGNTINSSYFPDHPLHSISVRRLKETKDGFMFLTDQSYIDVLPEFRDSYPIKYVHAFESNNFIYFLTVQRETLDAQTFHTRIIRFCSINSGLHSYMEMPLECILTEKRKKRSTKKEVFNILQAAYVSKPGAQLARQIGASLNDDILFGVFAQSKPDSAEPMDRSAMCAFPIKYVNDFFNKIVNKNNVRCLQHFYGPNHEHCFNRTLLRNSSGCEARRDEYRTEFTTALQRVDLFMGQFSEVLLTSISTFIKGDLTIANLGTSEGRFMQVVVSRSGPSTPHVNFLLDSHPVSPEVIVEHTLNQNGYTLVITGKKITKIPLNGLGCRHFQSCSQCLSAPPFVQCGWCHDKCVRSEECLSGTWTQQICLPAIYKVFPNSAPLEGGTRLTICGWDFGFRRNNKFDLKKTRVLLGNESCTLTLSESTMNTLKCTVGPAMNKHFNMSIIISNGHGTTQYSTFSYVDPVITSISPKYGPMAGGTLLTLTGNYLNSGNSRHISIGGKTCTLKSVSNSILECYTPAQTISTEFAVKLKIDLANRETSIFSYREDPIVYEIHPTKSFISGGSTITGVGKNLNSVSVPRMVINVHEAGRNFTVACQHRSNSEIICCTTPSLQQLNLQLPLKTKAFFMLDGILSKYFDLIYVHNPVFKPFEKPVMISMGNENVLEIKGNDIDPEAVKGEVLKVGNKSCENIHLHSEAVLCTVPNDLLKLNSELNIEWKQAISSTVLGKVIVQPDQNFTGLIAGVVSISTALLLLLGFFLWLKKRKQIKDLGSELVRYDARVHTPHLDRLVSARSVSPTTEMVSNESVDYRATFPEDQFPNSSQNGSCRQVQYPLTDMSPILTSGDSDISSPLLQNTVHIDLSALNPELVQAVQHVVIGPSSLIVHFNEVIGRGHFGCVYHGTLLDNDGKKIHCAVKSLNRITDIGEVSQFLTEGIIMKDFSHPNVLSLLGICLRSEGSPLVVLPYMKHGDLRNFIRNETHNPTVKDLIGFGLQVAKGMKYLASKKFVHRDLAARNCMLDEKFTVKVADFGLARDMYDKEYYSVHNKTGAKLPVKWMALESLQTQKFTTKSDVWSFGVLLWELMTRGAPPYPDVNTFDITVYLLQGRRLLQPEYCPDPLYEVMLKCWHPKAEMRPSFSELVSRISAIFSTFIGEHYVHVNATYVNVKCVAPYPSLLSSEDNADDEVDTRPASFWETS
Sequence of Fibroblast growth factor receptor 1 (Homo sapiens) (P11362 22-822 limits assumed): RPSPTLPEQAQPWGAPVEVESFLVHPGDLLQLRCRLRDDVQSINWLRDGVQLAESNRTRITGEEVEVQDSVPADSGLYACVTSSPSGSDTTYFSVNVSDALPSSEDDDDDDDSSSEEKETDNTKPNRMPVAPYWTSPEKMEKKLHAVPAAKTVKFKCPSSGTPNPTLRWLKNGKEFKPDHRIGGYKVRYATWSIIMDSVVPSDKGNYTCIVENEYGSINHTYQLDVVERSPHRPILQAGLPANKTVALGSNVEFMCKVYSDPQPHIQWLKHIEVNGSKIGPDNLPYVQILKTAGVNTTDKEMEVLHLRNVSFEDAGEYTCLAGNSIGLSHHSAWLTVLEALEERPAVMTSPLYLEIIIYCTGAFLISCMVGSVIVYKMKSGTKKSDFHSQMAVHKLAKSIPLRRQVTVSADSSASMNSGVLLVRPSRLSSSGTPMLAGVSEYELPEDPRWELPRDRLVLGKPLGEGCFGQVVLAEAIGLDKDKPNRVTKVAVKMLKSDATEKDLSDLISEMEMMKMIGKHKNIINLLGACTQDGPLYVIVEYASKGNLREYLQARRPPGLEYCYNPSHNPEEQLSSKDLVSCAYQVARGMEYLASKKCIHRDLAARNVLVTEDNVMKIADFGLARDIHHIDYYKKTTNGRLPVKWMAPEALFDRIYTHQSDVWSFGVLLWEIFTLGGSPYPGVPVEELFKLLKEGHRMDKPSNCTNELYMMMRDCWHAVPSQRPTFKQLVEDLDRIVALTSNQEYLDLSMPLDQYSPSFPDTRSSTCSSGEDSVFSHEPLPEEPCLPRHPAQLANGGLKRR
Sequence of Glycogen synthase kinase-3 beta (Homo sapiens) (P49841 whole entry, looked up): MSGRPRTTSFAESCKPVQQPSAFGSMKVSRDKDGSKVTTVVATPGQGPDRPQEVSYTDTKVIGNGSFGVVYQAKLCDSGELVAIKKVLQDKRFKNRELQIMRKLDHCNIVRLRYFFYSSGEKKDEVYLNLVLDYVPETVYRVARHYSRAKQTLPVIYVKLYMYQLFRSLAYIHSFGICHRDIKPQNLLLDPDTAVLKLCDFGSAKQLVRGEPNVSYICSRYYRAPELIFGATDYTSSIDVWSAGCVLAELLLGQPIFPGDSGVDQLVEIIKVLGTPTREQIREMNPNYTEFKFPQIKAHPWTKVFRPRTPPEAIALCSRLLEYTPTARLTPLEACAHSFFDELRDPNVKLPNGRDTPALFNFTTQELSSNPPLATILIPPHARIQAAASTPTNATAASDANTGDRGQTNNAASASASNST

With `O=C(Nc1ccc(Cl)cc1)c1ccnn1CCc1cccnc1`, the Activity (in assay [1]; in assay [2]; in [3]; in assay [4]; in the assay filed under Homo sapiens [5]; in the assay listed under Homo sapiens [7]) was over 30% in each case. The Activity (in [8]; in [9]; in the assay filed under Homo sapiens [11]; in [13]; in the assay filed under Homo sapiens [14]; in assay [15]) was over 30% throughout. Also, the Activity in assay [16] is over 30%; in assay [17], under 30%; in assay [18], over 30%. Besides, the IC50 in assay [6], in assay [10] and in assay [12] was over 10 µM each time.

In the case of `O=C(Nc1ccc(Cl)cc1)c1nc2ccccc2n1CCc1ccncc1`, the Activity (in [1]; in [2]; in assay [3]; in assay [4]; in the assay filed under Homo sapiens [5]; in the assay listed under Homo sapiens [7]) was over 30% in each case. The Activity (in [8]; in [9]; in the assay listed under Homo sapiens [11]; in [13]; in the assay filed under Homo sapiens [14]; in assay [15]) was over 30% throughout. Besides, the Activity in [16] was over 30%; in assay [17] it was under 30%; in [18] it was over 30%. For the same compound, the IC50 in assay [6], in assay [10] and in assay [12] was over 10 µM throughout.

On to `O=C(Nc1ccc(OC(F)(F)F)cc1)c1nnnn1CCc1ccncc1`, for which the Activity (in assay [1]; in assay [2]; in [3]; in assay [4]; in the assay filed under Homo sapiens [5]; in the assay filed under Homo sapiens [7]) was over 30% throughout. For the same compound, the Activity (in assay [8]; in [9]; in the assay listed under Homo sapiens [11]; in [13]; in the assay filed under Homo sapiens [14]; in assay [15]) was over 30% each time. Further, the Activity in assay [16] was over 30%; in [17] it was under 30%; in assay [18] it was over 30%. Besides, the IC50 in [6] worked out at 3.88 µM; in assay [10] it was 2.97 µM; in assay [12], 2.65 µM.

For `O=C(Nc1ccc(Cl)cc1)c1cc2ccccc2n1CCc1ccncc1`, the Activity (in [1]; in assay [2]; in assay [3]; in [4]; in the assay listed under Homo sapiens [5]; in the assay listed under Homo sapiens [7]) was over 30% throughout. Further, the Activity (in assay [8]; in assay [9]; in the assay listed under Homo sapiens [11]; in assay [13]; in the assay listed under Homo sapiens [14]; in assay [15]) was over 30% throughout. Besides, the Activity in assay [16] was over 30%; in assay [17] it was under 30%; in assay [18], over 30%. In addition, the IC50 in assay [6], in [10] and in assay [12] was over 10 µM in each case.

As to `CC(C)(C)c1ccc(NC(=O)c2nnnn2CCc2ccncc2)cc1`, the Activity (in assay [1]; in [2]; in assay [3]; in assay [4]; in the assay listed under Homo sapiens [5]; in the assay listed under Homo sapiens [7]) was over 30% each time. The Activity (in assay [8]; in [9]; in the assay filed under Homo sapiens [11]; in assay [13]; in the assay filed under Homo sapiens [14]; in assay [15]) was over 30% each time. For the same compound, the Activity was over 30% in assay [16], under 30% in assay [17] and over 30% in assay [18]. Moreover, the IC50 in [6], in assay [10] and in assay [12] was over 10 µM each time.

As to `O=C(Nc1ccc(OCc2ccccc2)cc1)c1ccnn1CCc1ccncc1`, the Activity (in [1]; in assay [2]; in [3]; in assay [4]; in the assay filed under Homo sapiens [5]; in the assay listed under Homo sapiens [7]) was over 30% in each case. Further, the Activity (in assay [8]; in assay [9]; in the assay filed under Homo sapiens [11]; in assay [13]; in the assay filed under Homo sapiens [14]; in [15]) was over 30% in each case. Moreover, the Activity in assay [16] was over 30%; in assay [17], under 30%; in [18] it was over 30%. For the same compound, the IC50 in assay [6], in [10] and in assay [12] was over 10 µM in each case.

On to `O=C(Nc1ccc(Cl)cc1)c1ccnn1CCc1noc2ccccc12`, for which the Activity (in [1]; in assay [2]; in [3]; in [4]; in the assay listed under Homo sapiens [5]; in the assay listed under Homo sapiens [7]) was over 30% in each case. In addition, the Activity (in [8]; in assay [9]; in the assay listed under Homo sapiens [11]; in assay [13]; in the assay listed under Homo sapiens [14]; in assay [15]) was over 30% throughout. For the same compound, the Activity is over 30% in assay [16], under 30% in [17] and over 30% in [18]. Also, the IC50 in [6], in assay [10] and in assay [12] was over 10 µM in each case.

As for `O=C(Nc1ccc2[nH]ncc2c1)c1ccnn1CCc1ccncc1`, the Activity (in assay [1]; in [2]; in [3]; in [4]; in the assay listed under Homo sapiens [5]; in the assay filed under Homo sapiens [7]) was over 30% in each case. Further, the Activity (in assay [8]; in assay [9]; in the assay listed under Homo sapiens [11]; in assay [13]; in the assay filed under Homo sapiens [14]; in [15]) was over 30% throughout. For the same compound, the results for the Activity in assay [16], in [17] and in assay [18] were over 30%, under 30% and over 30%, respectively. For the same compound, the IC50 in assay [6] is over 10 µM; in [10], over 10 µM; in [12], 5.15 µM.

Take `O=C(Nc1ccc(Cl)cc1)c1ccnn1CCc1c[nH]cn1`: the Activity (in [1]; in assay [2]; in assay [3]; in assay [4]; in the assay filed under Homo sapiens [5]; in the assay filed under Homo sapiens [7]) was over 30% in each case. Also, the Activity (in assay [8]; in assay [9]; in the assay listed under Homo sapiens [11]; in assay [13]; in the assay listed under Homo sapiens [14]; in [15]) was over 30% in each case. In addition, the Activity was over 30% in [16], under 30% in assay [17] and over 30% in assay [18]. For the same compound, the IC50 in [6], in assay [10] and in [12] was over 10 µM throughout.

For the compound `O=C(Nc1ccc(Cl)c(C(F)(F)F)c1)c1ccnn1CCc1ccncc1`, the Activity (in [1]; in [2]; in [3]; in [4]; in the assay listed under Homo sapiens [5]; in the assay listed under Homo sapiens [7]) was over 30% each time. Also, the Activity (in assay [8]; in assay [9]; in the assay filed under Homo sapiens [11]; in assay [13]; in the assay filed under Homo sapiens [14]; in assay [15]) was over 30% throughout. Moreover, the Activity in assay [16] was over 30%; in assay [17], under 30%; in assay [18] it was over 30%. The IC50 in assay [6] came to 2.33 µM; in assay [10] it was 0.45 µM; in [12], 0.75 µM.

Consider `O=C(Nc1ccc(OC(F)(F)F)cc1)c1nccn1CCc1ccncc1`, for which the Activity (in [1]; in assay [2]; in assay [3]; in [4]; in the assay listed under Homo sapiens [5]; in the assay listed under Homo sapiens [7]) was over 30% throughout. Besides, the Activity (in [8]; in assay [9]; in the assay filed under Homo sapiens [11]; in assay [13]; in the assay listed under Homo sapiens [14]; in assay [15]) was over 30% throughout. Moreover, the Activity in [16] was over 30%; in assay [17], under 30%; in assay [18] it was over 30%. Besides, the values for the IC50 in assay [6], in assay [10] and in assay [12] were 4.27 µM, 1.05 µM and 0.79 µM, respectively.

Regarding `CN(C(=O)c1ccnn1CCc1ccncc1)c1ccc(Cl)cc1`, the IC50 in assay [6] and in assay [12] was over 10 µM throughout.

As a reminder, the IC50 is the concentration at which inhibition is half-maximal.
